Tests used:
A control cell lines = assay: MTT assay, A control cell lines (lung cancer cell); type: cell-based
Source text: Please refer to Table 1 and FIGS. 4A-4C. According to a MTT assay (Table 1), various cell viabilities of the A control cell lines can be obtained and illustrated in FIG. 4A while the compounds No. 2˜30 are used to treat A control cell lines, wherein A control cell lines are lung cancer cell.

HEL299 fibroblast = assay: MTT assay, HEL299 fibroblast; type: cell-based
Source text: (§1) Please refer to FIG. 4C, various cell viabilities of the HEL299 cell lines can be obtained through the MTT assay while the compounds No. 1˜30 are used to treat HEL299 cell lines, wherein HEL299 cell lines are fibroblast.

[1] = MTT assay, HEL299 fibroblast; type: cell-based; settings: human
Source text: as §1

A3 cell lines = assay: MTT assay, A3 cell lines (lung cancer stem cell); type: cell-based
Source text: Please to FIG. 4B, various cell viabilities of the A3 cell lines can be obtained through the MTT assay and illustrated in FIG. 4B while the compounds No. 1˜30 are used to treat A3 cell lines, wherein A3 cell lines are lung cancer stem cell.

HCT-15 = assay: NCI in vitro DTP human cell line screen, HCT-15; type: cell-based; settings: Colon Cancer, 1.00E−5 Molar
Experimental: (§2) Then, a cell toxicity assay of the cancer lines made by National Cancer Institute will be discussed as follows. The cell toxicity assay is performed by choosing ten compounds (existing certification numbers) from the 59 compounds disclosed in the present invention first.

CAKI-1 = assay: NCI in vitro DTP human cell line screen, CAKI-1; type: cell-based; settings: Renal Cancer, 1.00E−5 Molar
Experimental: as §2

MCF7 = assay: NCI in vitro DTP human cell line screen, MCF7; type: cell-based; settings: Breast Cancer, 1.00E−5 Molar
Experimental: as §2

UACC-257 = assay: NCI in vitro DTP human cell line screen, UACC-257; type: cell-based; settings: Melanoma, 1.00E−5 Molar
Experimental: as §2

T-47D = assay: NCI in vitro DTP human cell line screen, T-47D; type: cell-based; settings: Breast Cancer, 1.00E−5 Molar
Experimental: as §2

UO-31 = assay: NCI in vitro DTP human cell line screen, UO-31; type: cell-based; settings: Renal Cancer, 1.00E−5 Molar
Experimental: as §2

TK-10 = assay: NCI in vitro DTP human cell line screen, TK-10; type: cell-based; settings: Renal Cancer, 1.00E−5 Molar
Experimental: as §2

SK-OV-3 = assay: NCI in vitro DTP human cell line screen, SK-OV-3; type: cell-based; settings: Ovarian Cancer, 1.00E−5 Molar
Experimental: as §2

OVCAR-3 = assay: NCI in vitro DTP human cell line screen, OVCAR-3; type: cell-based; settings: Ovarian Cancer, 1.00E−5 Molar
Experimental: as §2

HT29 = assay: NCI in vitro DTP human cell line screen, HT29; type: cell-based; settings: Colon Cancer, 1.00E−5 Molar
Experimental: as §2

SK-MEL-28 = assay: NCI in vitro DTP human cell line screen, SK-MEL-28; type: cell-based; settings: Melanoma, 1.00E−5 Molar
Experimental: as §2

SK-MEL-2 = assay: NCI in vitro DTP human cell line screen, SK-MEL-2; type: cell-based; settings: Melanoma, 1.00E−5 Molar
Experimental: as §2

RXF 393 = assay: NCI in vitro DTP human cell line screen, RXF 393; type: cell-based; settings: Renal Cancer, 1.00E−5 Molar
Experimental: as §2

NCI-H460 = assay: NCI in vitro DTP human cell line screen, NCI-H460; type: cell-based; settings: Non-Small Cell Lung Cancer, 1.00E−5 Molar
Experimental: as §2

SW-620 = assay: NCI in vitro DTP human cell line screen, SW-620; type: cell-based; settings: Colon Cancer, 1.00E−5 Molar
Experimental: as §2

SF-268 = assay: NCI in vitro DTP human cell line screen, SF-268; type: cell-based; settings: CNS Cancer, 1.00E−5 Molar
Experimental: as §2

DU145 = assay: NCI in vitro DTP human cell line screen, DU145; type: cell-based; settings: Prostate Cancer, 1.00E−5 Molar
Experimental: as §2

IGROV1 = assay: NCI in vitro DTP human cell line screen, IGROV1; type: cell-based; settings: Ovarian Cancer, 1.00E−5 Molar
Experimental: as §2

NCI/ADR-RES = assay: NCI in vitro DTP human cell line screen, NCI/ADR-RES; type: cell-based; settings: Ovarian Cancer, 1.00E−5 Molar
Experimental: as §2

COLO 205 = assay: NCI in vitro DTP human cell line screen, COLO 205; type: cell-based; settings: Colon Cancer, 1.00E−5 Molar
Experimental: as §2

NCI-H322M = assay: NCI in vitro DTP human cell line screen, NCI-H322M; type: cell-based; settings: Non-Small Cell Lung Cancer, 1.00E−5 Molar
Experimental: as §2

BT-549 = assay: NCI in vitro DTP human cell line screen, BT-549; type: cell-based; settings: Breast Cancer, 1.00E−5 Molar
Experimental: as §2

U251 = assay: NCI in vitro DTP human cell line screen, U251; type: cell-based; settings: CNS Cancer, 1.00E−5 Molar
Experimental: as §2

M14 = assay: NCI in vitro DTP human cell line screen, M14; type: cell-based; settings: Melanoma, 1.00E−5 Molar
Experimental: as §2

60 cancer lines = assay: NCI cell toxicity assay of 60 cancer lines, whole panel summary; type: cell-based, human; settings: 1.00E−5 Molar
Experimental: as §2

NCI-H522 = assay: NCI in vitro DTP human cell line screen, NCI-H522; type: cell-based; settings: Non-Small Cell Lung Cancer, 1.00E−5 Molar
Experimental: as §2

PC-3 = assay: NCI in vitro DTP human cell line screen, PC-3; type: cell-based; settings: Prostate Cancer, 1.00E−5 Molar
Experimental: as §2

HL-60(TB) = assay: NCI in vitro DTP human cell line screen, HL-60(TB); type: cell-based; settings: Leukemia, 1.00E−5 Molar
Experimental: as §2

SF-295 = assay: NCI in vitro DTP human cell line screen, SF-295; type: cell-based; settings: CNS Cancer, 1.00E−5 Molar
Experimental: as §2

SR = assay: NCI in vitro DTP human cell line screen, SR; type: cell-based; settings: Leukemia, 1.00E−5 Molar
Experimental: as §2

CCRF-CEM = assay: NCI in vitro DTP human cell line screen, CCRF-CEM; type: cell-based; settings: Leukemia, 1.00E−5 Molar
Experimental: as §2

HCC-2998 = assay: NCI in vitro DTP human cell line screen, HCC-2998; type: cell-based; settings: Colon Cancer, 1.00E−5 Molar
Experimental: as §2

NCI-H226 = assay: NCI in vitro DTP human cell line screen, NCI-H226; type: cell-based; settings: Non-Small Cell Lung Cancer, 1.00E−5 Molar
Experimental: as §2

SK-MEL-5 = assay: NCI in vitro DTP human cell line screen, SK-MEL-5; type: cell-based; settings: Melanoma, 1.00E−5 Molar
Experimental: as §2

UACC-62 = assay: NCI in vitro DTP human cell line screen, UACC-62; type: cell-based; settings: Melanoma, 1.00E−5 Molar
Experimental: as §2

MDA-MB-468 = assay: NCI in vitro DTP human cell line screen, MDA-MB-468; type: cell-based; settings: Breast Cancer, 1.00E−5 Molar
Experimental: as §2

NCI-H23 = assay: NCI in vitro DTP human cell line screen, NCI-H23; type: cell-based; settings: Non-Small Cell Lung Cancer, 1.00E−5 Molar
Experimental: as §2

MOLT-4 = assay: NCI in vitro DTP human cell line screen, MOLT-4; type: cell-based; settings: Leukemia, 1.00E−5 Molar
Experimental: as §2

SNB-75 = assay: NCI in vitro DTP human cell line screen, SNB-75; type: cell-based; settings: CNS Cancer, 1.00E−5 Molar
Experimental: as §2

786-0 = assay: NCI in vitro DTP human cell line screen, 786-0; type: cell-based; settings: Renal Cancer, 1.00E−5 Molar
Experimental: as §2

MALME-3M = assay: NCI in vitro DTP human cell line screen, MALME-3M; type: cell-based; settings: Melanoma, 1.00E−5 Molar
Experimental: as §2

OVCAR-4 = assay: NCI in vitro DTP human cell line screen, OVCAR-4; type: cell-based; settings: Ovarian Cancer, 1.00E−5 Molar
Experimental: as §2

EKVX = assay: NCI in vitro DTP human cell line screen, EKVX; type: cell-based; settings: Non-Small Cell Lung Cancer, 1.00E−5 Molar
Experimental: as §2

KM12 = assay: NCI in vitro DTP human cell line screen, KM12; type: cell-based; settings: Colon Cancer, 1.00E−5 Molar
Experimental: as §2

ACHN = assay: NCI in vitro DTP human cell line screen, ACHN; type: cell-based; settings: Renal Cancer, 1.00E−5 Molar
Experimental: as §2

LOX IMVI = assay: NCI in vitro DTP human cell line screen, LOX IMVI; type: cell-based; settings: Melanoma, 1.00E−5 Molar
Experimental: as §2

HCT-116 = assay: NCI in vitro DTP human cell line screen, HCT-116; type: cell-based; settings: Colon Cancer, 1.00E−5 Molar
Experimental: as §2

SN12C = assay: NCI in vitro DTP human cell line screen, SN12C; type: cell-based; settings: Renal Cancer, 1.00E−5 Molar
Experimental: as §2

K562 = assay: NCI in vitro DTP human cell line screen, K562; type: cell-based; settings: Leukemia, 1.00E−5 Molar
Experimental: as §2

OVCAR-5 = assay: NCI in vitro DTP human cell line screen, OVCAR-5; type: cell-based; settings: Ovarian Cancer, 1.00E−5 Molar
Experimental: as §2

OVCAR-8 = assay: NCI in vitro DTP human cell line screen, OVCAR-8; type: cell-based; settings: Ovarian Cancer, 1.00E−5 Molar
Experimental: as §2

SF-539 = assay: NCI in vitro DTP human cell line screen, SF-539; type: cell-based; settings: CNS Cancer, 1.00E−5 Molar
Experimental: as §2

MDA-MB-231/ATCC = assay: NCI in vitro DTP human cell line screen, MDA-MB-231/ATCC; type: cell-based; settings: Breast Cancer, 1.00E−5 Molar
Experimental: as §2

SNB-19 = assay: NCI in vitro DTP human cell line screen, SNB-19; type: cell-based; settings: CNS Cancer, 1.00E−5 Molar
Experimental: as §2

RPMI-8226 = assay: NCI in vitro DTP human cell line screen, RPMI-8226; type: cell-based; settings: Leukemia, 1.00E−5 Molar
Experimental: as §2

HS 578-T = assay: NCI in vitro DTP human cell line screen, HS 578-T; type: cell-based; settings: Breast Cancer, 1.00E−5 Molar
Experimental: as §2

MDA-MB-435 = assay: NCI in vitro DTP human cell line screen, MDA-MB-435; type: cell-based; settings: Melanoma, 1.00E−5 Molar
Experimental: as §2

HOP-92 = assay: NCI in vitro DTP human cell line screen, HOP-92; type: cell-based; settings: Non-Small Cell Lung Cancer, 1.00E−5 Molar
Experimental: as §2

Cc1cc(C)c(CSc2ccc3c(=O)c4ccccc4sc3c2Cl)c(C)c1 [No. 28, 4-Chloro-3-(2,4,6-trimethylbenzylthio)-9H-thioxanthen-9-one]
cell viabilities of A control cell lines (MTT assay) (A control cell lines): 52.9% | inhibition effect on A control cell line (in words) (A control cell lines; summary of MTT cell viabilities): inhibition effect | cytotoxicity effect on the normal fibroblast (in words) (HEL299 fibroblast): without the cytotoxicity effect | viability [1]: 91.2% | cell viabilities of A3 cell lines (MTT assay) (A3 cell lines): 98.3 ± 2.25%

O=c1c2ccccc2sc2c(Cl)c(Sc3ccc(Cl)cc3)ccc12 [No. 29, 4-Chloro-3-(4-chlorophenylthio)-9H-thioxanthen-9-one]
Growth Percent (HCT-15): 85.15% | Growth Percent (CAKI-1): 48.21% | Growth Percent (MCF7): 83.90% | Growth Percent (UACC-257): 99.23% | Growth Percent (T-47D): 85.63% | Growth Percent (UO-31): 69.61% | Growth Percent (TK-10): 88.86% | Growth Percent (SK-OV-3): 73.85% | Growth Percent (OVCAR-3): 90.37% | Growth Percent (HT29): 86.36% | Growth Percent (SK-MEL-28): 114.93% | Growth Percent (SK-MEL-2): 105.36% | Growth Percent (RXF 393): 97.81% | Growth Percent (NCI-H460): 40.25% | Growth Percent (SW-620): 75.00% | cell viabilities of A control cell lines (MTT assay) (A control cell lines): 70.1 ± 2.68% | viability [1]: 74.5 ± 9.39% | Growth Percent (SF-268): 81.14% | Growth Percent (DU145): 108.68% | Growth Percent (IGROV1): 53.39% | Growth Percent (NCI/ADR-RES): 81.27% | Growth Percent (COLO 205): 87.02% | Growth Percent (NCI-H322M): 56.53% | Growth Percent (BT-549): 87.92% | Growth Percent (U251): 47.77% | Growth Percent (M14): 89.62% | Growth Percent, Mean (60 cancer lines; mean over all cell lines): 78.44% | cancer types with the better inhibition effect (in words) (60 cancer lines; summary of Table 3): better inhibition effect on Leukemia, non-small cell lung cancer, colorectal cancer, central nervous system cancer, ovarian cancer and kidney cancer | Growth Percent (NCI-H522): 80.48% | Growth Percent (PC-3): 77.10% | Growth Percent (HL-60(TB)): 105.61% | Growth Percent (SF-295): 57.86% | Growth Percent (SR): 51.19% | Growth Percent (CCRF-CEM): 67.42% | Growth Percent (HCC-2998): 98.92% | Growth Percent (NCI-H226): 81.05% | Growth Percent (SK-MEL-5): 88.35% | Growth Percent (UACC-62): 82.23% | Growth Percent (MDA-MB-468): 87.73% | Growth Percent (NCI-H23): 83.03% | Growth Percent (MOLT-4): 94.77% | Growth Percent (SNB-75): 76.16% | Growth Percent (786-0): 84.66% | Growth Percent (MALME-3M): 76.90% | Growth Percent (OVCAR-4): 31.58% | Growth Percent (EKVX): 73.14% | Growth Percent (KM12): 73.79% | Growth Percent (ACHN): 39.55% | Growth Percent (LOX IMVI): 63.24% | Growth Percent (HCT-116): 54.33% | Growth Percent (SN12C): 70.19% | Growth Percent (K562): 96.64% | Growth Percent (OVCAR-5): 107.36% | Growth Percent (OVCAR-8): 64.49% | Growth Percent (SF-539): 86.15% | Growth Percent (MDA-MB-231/ATCC): 77.55% | Growth Percent (SNB-19): 74.97% | Growth Percent (RPMI-8226): 88.56% | Growth Percent (HS 578-T): 102.79% | Growth Percent (MDA-MB-435): 85.11% | Growth Percent (HOP-92): 49.52% | cell viabilities of A3 cell lines (MTT assay) (A3 cell lines): 70.3 ± 5.31%
